One data set concerns cleaved caspase-3. The experiment in a line: cleaved caspase-3 immunohistochemistry of SKH-1 mouse skin. The following applies: BMS-202+SSL, 24 hr; vehicle+SSL over 60%. In kind it is in vivo. The method, then:
UVB exposure was performed on AP-1 luciferase reporter mice on the SKH-1 genetic background at a dose of 2.75 kJ/m2 using FS40 bulbs (Q-Lab Corporation) as described before with the modification that mice were imaged 24 hr post UVB exposure using whole body bioluminescence instead of 48 hr post UVB using ear punches. SSL irradiation of SKH-1 mice (Charles River Laboratories, strain code 477) at a dose of 90 kJ/m2 UVA/6 kJ/m2 UVB was performed using UVA-340 bulbs (Q-Lab Corporation) as described before.
Caspase-3: Briefly, deparaffinized mouse skin slides were subjected to antigen retrieval using a Decloaking chamber in Rodent Decloaker HIER solution (both from Biocare, 115° C. 30 seconds, then 90° C. 10 seconds) followed by blocking with first 3% hydrogen peroxide (10 minutes) and then 5% normal goat serum in PBST (1 hour). Slides were then incubated in a 1:300 dilution of anti-cleaved caspase-3 antibody (#9661, Cell Signal Technology) at 4° C. overnight. […] For quantification, the average count (caspase 3-positive per total epidermal cells) in four fields/slide (20× field) was determined for each mouse skin specimen and calculated per group (n=3).
Mouse IHC data were analyzed using Kruskal-Wallis non-parametric data analysis (GraphPad Prism 10.0 software). […]

The conditions of data set [1]: cited from earlier work.

Take `COc1nc(OCc2cccc(-c3ccccc3)c2C)ccc1CNCCNC(C)=O` [BMS-202]: the “percentage of epidermal cells staining positive for cleaved caspase-3” value in the data set on cleaved caspase-3 is reported as “approximately 10%”. Further, in data set [1], the Log P (usually the decadic logarithm of the partition coefficient of the neutral form, usually between octanol and water) is reported as 3.6.

Source of the values: patent publication US20260240826A1, “COMPOSITIONS FOR PD-L1 INHIBITION AND METHODS OF USE THEREOF” (ARIZONA BOARD OF REGENTS ON BEHALF OF THE UNIVERSITY OF …, priority 2023, published 2026).
